# Experimental data reported in EP4563573A1, “COMPOUND, AND PREPARATION METHOD THEREFOR AND USE THEREOF IN PREPARATION OF SEH INHIBITOR AND PPARS AGONIST” (Shenyang Pharmaceutical University, priority 2023, dated 2024).
# pEC50, pIC50: −log10 of the molar value. Where two headings read alike, the source gives them in different places.
# Columns and labels:
# [1] = biological target: T1, recombinant human sEH (HsEH) (Homo sapiens, UniProt P34913)
# T1 sequence (P34913 1-555): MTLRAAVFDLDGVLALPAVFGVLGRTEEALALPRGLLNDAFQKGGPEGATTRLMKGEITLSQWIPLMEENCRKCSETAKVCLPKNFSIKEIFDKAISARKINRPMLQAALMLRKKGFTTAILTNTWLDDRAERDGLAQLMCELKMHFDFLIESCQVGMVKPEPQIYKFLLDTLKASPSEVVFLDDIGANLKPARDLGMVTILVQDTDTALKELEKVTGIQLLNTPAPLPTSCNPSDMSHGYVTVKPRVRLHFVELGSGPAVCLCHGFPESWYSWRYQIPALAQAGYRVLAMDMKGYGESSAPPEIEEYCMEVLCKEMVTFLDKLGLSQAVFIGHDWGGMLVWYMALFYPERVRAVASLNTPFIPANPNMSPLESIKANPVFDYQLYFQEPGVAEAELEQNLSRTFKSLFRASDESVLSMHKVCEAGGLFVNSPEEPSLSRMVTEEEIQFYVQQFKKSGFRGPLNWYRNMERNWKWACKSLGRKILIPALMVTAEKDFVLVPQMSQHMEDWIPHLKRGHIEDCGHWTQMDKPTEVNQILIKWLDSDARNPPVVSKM
# Method: (§1) Detection principle: a specific substrate, (3-phenyl-oxy)-acetic acid cyano-(6-methoxy-naphthalen-2-yl) methyl ester, namely PHOME, is non-fluorescent but can be hydrolyzed under the action of sEH enzyme to generate a product 6-methoxy-2-naphthaldehyde. […] Based on the above principle, the inhibition rates of samples with different concentrations were calculated compared with the positive control group. The IC50 value of the compound was calculated based on the inhibition rate and concentration using SPSS 20 software.
# (§2) PHOME solution: 0.79 mg PHOME was dissolved in 106 µL DMSO to obtain a 20 mM PHOME solution, which was diluted to 1/3 mM with Tris-HCl buffer when used.
# (§3) sEH solution: sEH (5 mg/mL) stock solution was stored in a -80°C refrigerator and diluted to 4 µg/mL with 25 mM Tris-HCl buffer when used.
# (§4) A sample powder to be tested was dissolved in DMSO to a 20 mM solution, stored in a - 20°C refrigerator for later use, and diluted with Tris-HCl buffer to the corresponding concentration when used.
# (§5) Experimental design: solvent group, 100% activity group (A), inhibitor group (B), positive control group (C), as shown in Table 1.
# (§6) Three replicate wells were set for each sample, and the average of the three replicate wells was the fluorescence value (F) of the compound to be tested. […] The IC50 value of the compound was calculated based on the inhibition rate and concentration using SPSS 20 software.
# (§7) The activity of the compounds was evaluated using a biochemical method with [cyano-(6-methoxynaphthalen-2-yl)methyl] 2-(3-phenyloxiran-2-yl)acetate (PHOME) as a substrate using recombinant human sEH (HsEH) and murine sEH (MsEH).
# PPARγ = biological target: T2, PPARγ (Homo sapiens, UniProt P37231); test: PPARγ agonist activity test (luciferase reporter gene); format: cell-based; details: for PPARγ (compared with Rosiglitazone, %): relative to Rosiglitazone
# T2 sequence (P37231 204-505): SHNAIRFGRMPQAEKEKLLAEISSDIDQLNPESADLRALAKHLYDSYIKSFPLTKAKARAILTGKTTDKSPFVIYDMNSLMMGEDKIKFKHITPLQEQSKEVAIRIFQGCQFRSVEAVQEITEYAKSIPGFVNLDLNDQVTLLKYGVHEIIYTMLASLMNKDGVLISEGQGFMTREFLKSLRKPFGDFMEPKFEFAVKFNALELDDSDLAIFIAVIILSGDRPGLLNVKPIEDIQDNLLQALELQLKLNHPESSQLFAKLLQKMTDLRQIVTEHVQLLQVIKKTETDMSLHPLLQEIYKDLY
# From the text: • 1. PPARγ agonist activity test Detection principle: when pM-hPPAR binds to the appropriate ligand, and is activated and binds to the GAL4DNA binding site in the plasmid pB4-RES-tk-luc, thereby initiating the expression of the downstream luciferase reporter gene. The amount of luciferase is detected to determine whether the compound to be tested is a PPAR agonist. • 2.
# murine sEH (MsEH) [2] = biological target: T3, murine sEH (MsEH) (Mus musculus, UniProt P34914); details: read-out: MsEH IC50, PHOME substrate
# T3 sequence (P34914 1-554): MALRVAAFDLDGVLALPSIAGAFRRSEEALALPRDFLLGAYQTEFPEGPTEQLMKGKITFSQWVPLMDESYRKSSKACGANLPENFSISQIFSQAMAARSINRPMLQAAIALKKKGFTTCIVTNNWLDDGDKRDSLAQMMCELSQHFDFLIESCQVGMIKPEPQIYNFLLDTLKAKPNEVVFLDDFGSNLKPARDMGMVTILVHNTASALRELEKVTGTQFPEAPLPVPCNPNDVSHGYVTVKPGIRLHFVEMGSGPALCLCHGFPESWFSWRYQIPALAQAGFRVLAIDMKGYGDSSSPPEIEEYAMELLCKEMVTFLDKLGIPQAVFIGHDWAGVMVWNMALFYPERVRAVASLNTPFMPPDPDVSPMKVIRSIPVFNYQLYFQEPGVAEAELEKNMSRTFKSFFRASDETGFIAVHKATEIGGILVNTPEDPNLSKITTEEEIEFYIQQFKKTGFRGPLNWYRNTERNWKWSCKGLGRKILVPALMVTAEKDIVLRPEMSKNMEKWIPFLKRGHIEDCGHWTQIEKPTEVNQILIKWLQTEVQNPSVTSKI
# Method: as §1, §2, §3, §4, §5, §6, §7
# murine sEH (MsEH) [3] = biological target: T3, murine sEH (MsEH); test: biochemical
# Method: as §1, §2, §3, §4, §5, §6, §7
# [4] = Pharmacokinetics after intravenous and oral administration; details: rats, i.v. 10 mg/kg
# Method: Blood levels were measured within 8 hours after oral administration. […] Table 7 PK of SP-B07 after intravenous and oral administration in rats (n=3)
# [5] = read-out: HsEH IC50, recombinant human sEH, PHOME substrate
time at which maximum concentration was reached after intravenous injection [4],SMILES,"pIC50 [1, 5]","PPARγ (compared with Rosiglitazone, %) (PPARγ)",pIC50 (murine sEH (MsEH) [2]),pIC50 [1],pIC50 (murine sEH (MsEH) [3]),pEC50 (PPARγ)
–,CCC(C)C(=O)Nc1ccc(OC2CCCC(NC(=O)NC34CC5CC(C)(CC(C)(C5)C3)C4)C2)cc1 (centres unmarked) [SP-C01n],9.15,0.7%,8.89,–,–,–
–,CCC(=O)Nc1ccc(OC2CCCC(NC(=O)NC34CC5CC(C)(CC(C)(C5)C3)C4)C2)cc1 (centres unmarked) [SP-C01m],9.05,0.9%,8.17,–,–,–
–,CC12CC3CC(C)(C1)CC(NC(=O)N1CCC(Oc4ccc(CC5SC(=O)NC5=O)cc4)CC1)(C3)C2 (centres unmarked) [SP-A02],–,25.2%,–,7.08,8.08,–
–,"O=C1NC(=O)/C(=C/c2ccc(OC3CCN(C(=O)Nc4ccc(OC(F)(F)F)cc4)CC3)cc2)S1 [SP-B05, (Z)-4-{4-[(2,4-dioxothiazolidin-5-ylidene)methyl]phenoxy}-N-[4-(trifluoromethoxy)phenyl]piperidin-1-carboxamide]",–,17.3%,–,–,–,–
–,"COC(=O)CN1C(=O)S/C(=C\c2ccc(O[C@H]3CC[C@H](NC(=O)NC45CC6C[C@@](C)(C4)C[C@](C)(C6)C5)CC3)cc2)C1=O [SP-D04, methyl 2-(5-((Z)-4-(((1R,4r)-4-(3-((1R,3R,5S,7R)-3,5-dimethyladamantan-1-yl)ureido)cyclohexyl)oxy)benzylidene)-2,4-dioxythiazolin-3-yl)acetate]",8.92,1.2%,8.00,–,–,–
–,CC12CC3CC(C)(C1)CC(NC(=O)N[C@H]1CC[C@H](Oc4ccc(CC5SC(=O)NC5=O)cc4)CC1)(C3)C2 (some centres unmarked) [SP-A01],–,34.5%,–,9.26,9.27,5.17
–,"CC12CC3CC(C)(C1)CC(NC(=O)N1CCC(Oc4ccc(/C=C5\NC(=O)NC5=O)cc4)CC1)(C3)C2 [SP-B03, N-[(1r,3R,5S,7r)-3,5-dimethyladamantan-1-yl]-4-{4-[(Z)-(2,5-dioxyimidazolin-4-ylidene)methyl]phenoxy}piperidin-1-carboxamide]",–,10.2%,–,6.92,6.87,–
–,NC(=O)c1ccc(O[C@H]2CC[C@H](NC(=O)Nc3ccc(OC(F)(F)F)cc3)CC2)cc1 [SP-C01i],–,12.97%,–,9.52,9.15,–
–,O=C(Nc1ccc(OC(F)(F)F)c(F)c1)N[C@H]1CC[C@H](Oc2ccc(/C=C3\SC(=O)NC3=O)cc2)CC1 [SP-B06],–,19.3%,–,9.16,8.96,–
–,CC12CC3CC(C)(C1)CC(NC(=O)N1CCC(Oc4ccc(/C=C5\SC(=O)NC5=O)cc4)CC1)(C3)C2 [SP-B02],–,14.6%,–,7.70,7.63,–
–,"CC(=O)Nc1ccc(O[C@H]2CC[C@H](NC(=O)Nc3ccc(OC(F)(F)F)c(F)c3)CC2)cc1 [SP-C01k, N-(4-(((1r,4r)-4-(3-(3-fluoro-4-(trifluoromethoxy)phenyl)ureido)cyclohexyl)oxy)phenyl)acetamide]",–,0.3%,–,–,–,–
–,O=C1NC(=O)/C(=C/c2ccc(OC3CCN(C(=O)Nc4ccc(OC(F)(F)F)cc4)CC3)cc2)N1 [SP-B04],–,9.6%,–,6.81,6.97,–
–,O=C(Nc1ccc(OC(F)(F)F)c(F)c1)N[C@H]1CC[C@H](Oc2ccc(CC3SC(=O)NC3=O)cc2)CC1 (some centres unmarked) [SP-A07],–,21.1%,–,10.15,9.17,5.11
–,CCOC(=O)CC(=O)Nc1ccc(O[C@H]2CC[C@H](NC(=O)Nc3ccc(OC(F)(F)F)c(F)c3)CC2)cc1 [SP-C01s],–,0.3%,–,9.52,9.22,–
2 min,"CC(=O)Oc1ccc(O[C@H]2CC[C@H](NC(=O)Nc3ccc(OC(F)(F)F)c(F)c3)CC2)cc1 [SP-C01, phenyl 4-(((1r,4r)-4-(3-(3-fluoro-4-(trifluoromethoxy)phenyl)ureido)cyclohexyl)oxy)acetate]",–,–,–,–,–,–
